Reference: patent US4656178A (priority 1985, dated 1987)
Counter-ions that a name gives are not always drawn. Like-named read-outs stand apart in the source and are kept apart here.

What was measured:
[1] = test system: aconitine arrhythmia; assay: animal or person; assay type: in vivo, rats; conditions: for perdition of narcotized rats prior to administration of aconitine: doses of 20 mg/kg and more; for duration of prevention of aconitine arrhythmia: doses of 5-10 mg/kg; for antiarrhythmic index (LD50/ED50): prophylactic effect, aconitine arrhythmia
Protocol: The assessment of the antiarrhythmic activity of the preparation was effected in acute and chronical experiments on rats, rabbits, cats and dogs. Various experimental models of arrhythmia were also used.
(§1) The atrioventricular arrhythmia caused by aconitine is one of the most reliable models for forecasting the efficiency of the antiarrhythmic action of the novel preparation in clinics. The experiments were conducted on both narcotized and non-narcotized animals. The preparation was administered per os, intramuscularly, intraperitoneally and intravenously 5 to 15 minutes prior to or 3-5 minutes after the administration of aconitine.
In doses of 0.2-0.5 mg/kg the preparation of this invention prevents the appearance of aconitine arrhythmia in 100% of the rats. […] Under similar experimental conditions a preliminary administration of novocainamide in the dose of 60 mg/kg intravenously produced an antiarrhythmic effect in 50% of the animals.

[2] = test system: aconitine arrhythmia; assay type: in vivo, rats; conditions: for efficacy against developing aconitine arrhythmia: similar conditions, dose not stated
Protocol: as §1
The antiarrhythmic activity of the pharmaceutical composition according to the present invention upon administration thereof against the background of a developing aconitine arrhythmia (therapeutic effect) was studied on 110 narcotized rats. The preparation was intravenously administered at intervals of 3-6 minutes against the background of the originated arrhythmia.

[3] = test system: cardiac conductive system; assay type: in vivo, narcotized rats, cats, intact rabbits and dogs; conditions: for rhythm of cardiac contractions: high doses
From the text: To investigate the character of the effect produced on the functions of the cardiac conductive system by the preparation according to the present invention, the ECG changes appearing in narcotized rats, cats, intact rabbits and dogs under the action of the preparation of this invention were studied. […] The effect of the preparation is retained for a long time.

[4] = test system: cardiac arrhythmia caused by ligation of the descending branch of the left coronary artery; assay: cardiac arrhythmia caused by ligation of the descending branch of the left coronary artery (Harris method) in dogs; assay type: in vivo
Protocol: The effect of the preparation according to the present invention on the cardiac arrhythmia caused by ligation of the descending branch of the left coronary artery by the Harris method was studied in experiments on dogs. The preparation according to the present invention was intravenously administered on the first and second post-operative days. Preliminarily, prior to every experiment 30 to 45 minutes before the administration of the preparation the background changes of the dogs' electrocardiogram (ECG) were recorded. […] In 40% thereof a full suppression of ectopic contractions was noticed for 3-3.5 hours, whereafter arrhythmia appeared with the intensity thereof not reaching the initial background during 7 hours.

[5] = test system: cardiac arrhythmia induced by barium chloride; assay: cardiac arrhythmia induced by barium chloride; assay type: in vivo, narcotized rats and intact rabbits
Protocol: The study of the antiarrhythmic activity of the preparation according to the present invention on a model of cardiac arrhythmia induced by barium chloride was carried out on 56 narcotized rats and 16 intact rabbits. The preparation of the present invention in the dose of 0.1 mg/kg injected 10 minutes prior to administration of barium prevented the development of arrhythmia in 86.6% of the animals.

[6] = test system: arrhythmia caused by electrical irritation; assay: arrhythmia caused by electrical irritation of the right auricle and apex of the left ventricle; assay type: in vivo, dogs and cats; conditions: for onset of antiarrhythmic effect: after intravenous administration; for bradycardia / reduction of arterial pressure: all tested doses
[7] = infiltration anesthesia in rabbits (intracutaneous); assay type: in vivo; conditions: 0.5% solution
Protocol: The local anesthetic effect of the preparation was studied on 14 intact rabbits. […] The results of the experiments on determination of the ability of the preparation to cause infiltration anesthesia have shown that 10-15 minutes after intracutaneous administration, to rabbits, of 0.01-0.05% and 0.1% solutions of the preparation anesthesia occurs which is characterized by an increased threshold of a pain irritation; the duration of the effect is 20 to 48 hours. Under the same conditions of the experiment, the local anesthetic effect of a 0.5% solution of novocaine lasts for 90 minutes on the average.

[8] = test system: frog's heart; assay: amplitude of cardiac contractions of isolated frog's heart (Schtraube)
From the text: To find out a negative inotropic effect on the heart tissue, two series of experiments have been carried out:
(1) the study of the effect of the preparation of this invention on the amplitude of the cardiac contractions of a frog's heart isolated according to Schtraube;

[9] = test system: cardiotoxic effect of the preparation; assay: sodium bicarbonate at cardiotoxic effect of the preparation in dogs

## COc1ccc(CCN(C)CCCC(C#N)(c2ccc(OC)c(OC)c2)C(C)C)cc1OC (stereo not drawn) [isoptin]
[1]; doses of 0.1-2.5 mg/kg
  prevention of aconitine arrhythmia: did not prevent the development of aconitine arrhythmia

## CCN(CC)CC(=O)Nc1c(C)cccc1C [lidocaine]
[1]
  perdition of narcotized rats prior to administration of aconitine: perdition of a portion of the narcotized rats
  duration of prevention of aconitine arrhythmia: 3 to 5 min
[2]; 5-10 mg/kg, followed by development of arrhythmia
  duration of arrhythmia-arresting effect: 0.5 to 3 min

## CCN(CC)CCNC(=O)c1ccc(N)cc1 [novocainamide, β-diethylaminoethylamide hydrochloride of p-aminobenzoic acid]
[3]
  rhythm of cardiac contractions: sharp disturbances of the rhythm of cardiac contractions
[4]; 40-50 mg/kg
  duration of antiarrhythmic effect: 4 to 7 min
[4]; 70-80 mg/kg
  duration of antiarrhythmic effect: 30 to 60 min
[4]; dog, in vivo
  dose producing the antiarrhythmic effect: 40 to 50 mg/kg
[1]; 60 mg/kg intravenously, preliminary administration
  animals with antiarrhythmic effect: 50%
[1]
  antiarrhythmic index (LD50/ED50): 2.3
[5]; comparison with preparation and quinidine
  antiarrhythmic activity, barium chloride model: weakest antiarrhythmic activity
[6]; 10 mg/kg
  animals with antiarrhythmic effect: 40%
  duration of antiarrhythmic effect: 2 to 5 min
[6]; 20-30 mg/kg
  duration of antiarrhythmic effect: 20 to 25 min
[6]
  onset of antiarrhythmic effect: 1.0 to 1.5 min
  bradycardia: bradycardia
  reduction of arterial pressure: 20-70 mm Hg
[2]; 20 mg/kg
  rats with restored normal sinus rhythm: 3 rats out of 6
[2]; 20 mg/kg, then stable arrhythmia appeared again
  duration of restored normal sinus rhythm (average): ~10 min
[2]; 40 mg/kg
  animals with antiarrhythmic effect: 83.3%
  rats with effect only during the first 20 minutes, then stable arrhythmia reappeared: 50%
[2]; 40 mg/kg, in 50% of the rats
  duration of effect, after which stable arrhythmia reappeared: 20 min
[2]; against background of developing aconitine arrhythmia
  antiarrhythmic index (LD50/ED50): 6.9

## CCN(CC)CCOC(=O)c1ccc(N)cc1 [novocaine, reference compound]
[7]
  duration of local anesthetic effect (average): ~90 min

## CC(C)NCC(O)COc1cccc2ccccc12 (stereo not drawn) [obzidan, propranolol]
[1]; 5 mg/kg
  animals in which arrhythmia was developed (after retardation): 60%
[1]; 5 mg/kg, in all test rats
  retardation of the time of appearance of aconitine arrhythmia: 5 to 8 min
[2]
  efficacy against developing aconitine arrhythmia: inefficient

## C=C[C@H]1C[N@@]2CC[C@H]1C[C@@H]2[C@@H](O)c1ccnc2ccc(OC)cc12 [quinidine]
[3]
  rhythm of cardiac contractions: sharp disturbances of the rhythm of cardiac contractions
[4]; 5-10 mg/kg
  effect on cardiac arrhythmia: weak effect
[1]; 20 mg/kg
  animals with antiarrhythmic effect: 50%
[1]
  antiarrhythmic index (LD50/ED50): 2.75
[5]; 10 mg/kg
  antiarrhythmic effect relative to the preparation: approximately corresponded to the antiarrhythmic effect produced by the preparation according to the present invention in the dose of 0.1 mg/kg
[6]; 10 mg/kg
  animals with antiarrhythmic effect: 30%
  duration of antiarrhythmic effect: 2 to 5 min
[6]; 20-30 mg/kg
  duration of antiarrhythmic effect: 20 to 25 min
[6]
  onset of antiarrhythmic effect: 2 to 3 min
  bradycardia: bradycardia
  reduction of arterial pressure: 20-70 mm Hg
[8]
  negative inotropic effect compared with the preparation: considerably superior to the preparation of the present invention
[8]; concentration of 10^-4 to 3.10^-4 g/ml
  effect on isolated heart: along with a sharp inhibition of the amplitude of cardiac contractions, arrhythmia
[2]; doses of 2.5, 5, 10, 20 mg/kg
  antiarrhythmic activity against developing aconitine arrhythmia: no antiarrhythmic activity

## O=C(O)O [sodium bicarbonate]
[3]; in vivo
  effect on the inhibition of conductivity by the preparation: diminishes the inhibiting effect of the preparation on conductivity
[9]; 4% solution, 100 to 200 ml
  effect on ECG changes caused by toxic doses of the preparation: equalizes distinctly pronounced electrocardiographic changes
[9]; infusion of sodium bicarbonate
  effect on reduced arterial pressure in overdosing of the preparation: levelled
[9]; intravenous infusion of 4% solution, 100 to 200 ml, after beginning of infusion
  time to equalization of ECG changes caused by toxic doses of the preparation: 15 to 30 min

## CCN(CC)CC(=O)Nc1c(C)cc(C)cc1C [trimecaine]
[1]
  perdition of narcotized rats prior to administration of aconitine: perdition of a portion of the narcotized rats
  duration of prevention of aconitine arrhythmia: 3 to 5 min
[2]
  efficacy against developing aconitine arrhythmia: inefficient
